Assay results from patent publication US20160262923A1, “INTRAUTERINE DELIVERY SYSTEM” (BAYER OY, priority 2013, published 2016).
One block for each compound: values may come before it.

Key:
Uterine bleeding = assay: Comparison study in monkey, IUS vehicle vs LNG vs NP, uterine bleeding; format: in vivo, cynomolgus macaques; details: for number of bleeding days: first 7 days after insertion neglected
Method: Animal Treatments: Adult cycling cynomolgus macaques were monitored to record regular menstrual cycles. Uterine bleeding was assessed daily by vaginal swabs (for sporadic vaginal spotting) and menstrual blood loss by vaginal tampons. After 2 menstrual cycles (˜60 days), the animals were assigned to treatment groups and laparotomized between days 6-8 (ideally day 7) of the follicular phase and an IUS was inserted by hysterotomy into the uterine lumen and sutured in place. Treatment IUS was as follows (n=5-6/group): • Group 1: Vehicle IUS • Group 2: 2 μg/day LNG • Group 3: 5 μg/day LNG • Group 4: 2 μg/day NP • Group 5: 5 μg/day NP Classification of bleeddings: Bleedings were grouped in three categories: a) positive swap or frank menses, which is the most heavy form of bleeding (BB, red colour), b) light positive swab, which is an intermediated type of bleeding (B, purple colour) and c) spot positive swab, which is a very light form of bleeding (S, orange colour). For evaluation of bleeding days, the first 7 days after insertion of the IUS were neglected, because the surgical insertion procedure already causes some bleedings in these days, which is unrelated progestin effects. FIGS. 2 and 3 and Tables 1 and 2 illustrate a comparison of 2 μg/d LNG release with 5 μg/d LNG release for 80 days with the IUS for each animal.

uterine horn = assay: Weight gain of IUS-carrying uterine horn in ovary-resected rats; format: in vivo; details: E2 treated, IUS (rod) in right uterine horn
Method: The local uterine action of the a.m. progestin compared to systemic side effects (dissociation) was investigated on the basis of studies using rats (see Example 4; FIGS. 4 to 6). The uterus of ovary-resected rats responded to implantation of progestin-containing IUS (rods) with decidualization and weight gain. The local progestin effects were also determined on the basis of changes in gene expression. […] The left uterine horn remained untreated for internal comparison.

[1] = in vivo
IGFBP-1, Cyp26a1 = assay: Gene expression analysis of uterine tissue after IUS (rods) in rats; format: in vivo; details: local administration by IUS (rods) in rats, identical release rates
Method: The left uterine horn remained untreated for internal comparison.
The uterine tissue was homogenized in 800 μl of RLT lysis buffer (Qiagen, Hilden, Germany; #79216) using a Precellys24 homogenizer (Peqlab, Erlangen, Germany; 2.8 mm ceramic beads; #91-PCS-CK28, 2×6000 rpm). 400 μl of the homogenate obtained were used for isolating total RNA, using the QlAsymphony RNA kit (Qiagen, #931636) on a QlAsymphony SP robot for automated sample preparation. Reverse transcription of from 1 μg to 4 μg of total RNA was carried out using the SuperScript III first-strand synthesis system (Invitrogen, Carlsbad, USA; #18080-051) according to the random hexamer procedure.
Gene expression analysis was carried out with from 50 ng to 200 ng of cDNA per reaction on an SDS7900HT Real.time PCR system (Applied Biosystems, Carlsbad, USA) using TaqMan probes (Applied Biosystems; IGFBP-1 Rn00565713_m1, Cyp26a1 Rn00590308_m1, PPIA Rn00690933_m1) and the Fast Blue qPCR MasterMix Plus (Eurogentec, Liege, Belgium; #RT-QP2X-03+FB). For relative quantification, cyclophilin A (PPIA) was used as an endogenous control. Relative expression levels were calculated according to the comparative delta delta CT method.

[2] = Progestational activity compared to LNG
[3] = release rate 2 μg/d, total of 6 test animals
[4] = release rate 5 μg/d, total of group (LNG: 5 test animals)

Compound: C#C[C@]1(O)CC[C@H]2[C@@H]3CCC4=CC(=O)CC[C@@H]4[C@H]3CC[C@@]21CC [LNG, levonorgestrel, reference compound]
- number of bleeding days (Uterine bleeding; [3]): 24 days
- number of bleeding days (Uterine bleeding; [4]): 4 days

- break-down rate [1]: very fast break-down rate
Compound: CC[C@]12CCC3C4CCC(=O)C=C4C4CC4C3C1[C@@H]1C[C@@H]1[C@@]21CCCO1 (stereo partly drawn) [compound B, 18-methyl-6α,7α,15β,16β-dimethylene-19-nor-20-spirox-4-en-3-one]
- local efficacy by way of weight gain in the IUS-carrying uterine horn (uterine horn): dose-dependent local efficacy

- break-down rate [1]: very fast break-down rate
Compound: CC[C@]12CC[C@H]3[C@@H](CCC4=CC(=O)CC[C@@H]43)[C@@H]1[C@@H]1C[C@@H]1[C@@]21CCCO1 [compound A, 18-methyl-15β,16β-methylene-19-nor-20-spirox-4-en-3-one]
- local efficacy by way of weight gain in the IUS-carrying uterine horn (uterine horn): dose-dependent local efficacy
- potency in inducing gene expression relative to levonorgestrel (IGFBP-1, Cyp26a1): 4- to 7 fold
- progestional activity compared to LNG [2]: higher progestional activity
- bleeding reduction compared to LNG (Uterine bleeding; 2 μg/d NP versus 2 μg/d LNG): higher bleeding reduction
- bleeding compared to vehicle IUS group (Uterine bleeding; 2 μg/d release group): marked reduction of bleeding
- bleeding compared to vehicle IUS group (Uterine bleeding; 5 μg/d release group): marked reduction of bleeding
- number of bleeding days (Uterine bleeding; [3]): 4 days
- number of bleeding days (Uterine bleeding; [4]): No bleeding
- systemic stability / plasma clearance compared to LNG [1]: low systemic stability/higher plasma clearance
